Measured values reported in ChEMBL document CHEMBL5465560, “Selectivity Literature for EUbOPEN Chemogenomic Library” (2024).
pIC50: −log10 of the molar value.

How the values were obtained:
[1] = target: Serine/threonine-protein kinase B-raf (Homo sapiens) (UniProt P15056); conditions: at 10 µM
[2] = target: Myosin light chain kinase, smooth muscle (Homo sapiens, UniProt Q15746); experiment: Selectivity interaction (KinomeScan (DiscoverX)) EUB0000655a MYLK; conditions: at 10 µM
[3] = target: Serine/threonine-protein kinase 25 (Homo sapiens) (UniProt O00506); experiment: Selectivity interaction (KinomeScan (DiscoverX)) EUB0000666a STK25; conditions: at 10 µM
Serine/threonine-protein kinase 25 (Homo sapiens), sequence (O00506 whole entry, looked up): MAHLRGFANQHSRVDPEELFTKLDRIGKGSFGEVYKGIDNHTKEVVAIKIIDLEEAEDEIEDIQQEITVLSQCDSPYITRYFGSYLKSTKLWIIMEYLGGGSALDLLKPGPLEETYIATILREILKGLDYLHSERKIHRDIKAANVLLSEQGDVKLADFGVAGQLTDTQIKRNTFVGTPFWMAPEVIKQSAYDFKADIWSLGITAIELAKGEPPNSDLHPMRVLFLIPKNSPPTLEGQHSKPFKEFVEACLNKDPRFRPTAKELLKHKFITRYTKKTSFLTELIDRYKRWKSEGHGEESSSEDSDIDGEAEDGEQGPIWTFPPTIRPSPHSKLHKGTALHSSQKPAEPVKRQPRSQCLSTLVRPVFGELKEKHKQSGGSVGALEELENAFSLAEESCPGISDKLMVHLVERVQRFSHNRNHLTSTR

[4] = target: T1, Dual serine/threonine and tyrosine protein kinase (Homo sapiens) (UniProt Q6XUX3); conditions: at 10 µM
T1 sequence (whole entry): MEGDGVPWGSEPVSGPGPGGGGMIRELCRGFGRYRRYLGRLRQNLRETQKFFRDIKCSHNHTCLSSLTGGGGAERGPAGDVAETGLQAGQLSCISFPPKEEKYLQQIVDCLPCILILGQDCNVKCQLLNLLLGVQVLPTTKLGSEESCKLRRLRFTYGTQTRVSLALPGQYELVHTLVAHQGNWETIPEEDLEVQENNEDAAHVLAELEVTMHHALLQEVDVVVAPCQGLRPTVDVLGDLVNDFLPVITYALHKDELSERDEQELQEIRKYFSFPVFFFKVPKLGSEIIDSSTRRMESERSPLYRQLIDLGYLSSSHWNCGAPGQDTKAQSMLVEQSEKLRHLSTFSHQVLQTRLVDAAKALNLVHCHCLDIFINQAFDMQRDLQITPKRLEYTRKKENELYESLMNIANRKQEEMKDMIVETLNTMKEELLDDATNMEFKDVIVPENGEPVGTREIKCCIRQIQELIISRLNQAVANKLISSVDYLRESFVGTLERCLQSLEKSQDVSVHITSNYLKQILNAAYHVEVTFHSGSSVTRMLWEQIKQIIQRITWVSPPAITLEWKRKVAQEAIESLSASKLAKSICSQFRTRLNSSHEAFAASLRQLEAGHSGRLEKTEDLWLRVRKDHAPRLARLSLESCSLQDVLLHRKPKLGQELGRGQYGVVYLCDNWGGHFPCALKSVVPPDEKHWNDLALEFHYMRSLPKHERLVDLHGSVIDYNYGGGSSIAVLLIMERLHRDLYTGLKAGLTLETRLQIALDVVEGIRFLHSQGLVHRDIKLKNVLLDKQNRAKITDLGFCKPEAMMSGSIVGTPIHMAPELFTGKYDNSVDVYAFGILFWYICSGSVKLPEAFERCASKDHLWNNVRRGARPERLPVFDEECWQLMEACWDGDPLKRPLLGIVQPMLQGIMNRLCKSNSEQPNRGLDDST

[5] = system: Leucine-rich repeat serine/threonine-protein kinase 2 (Homo sapiens), Q5S007 [G2019S]; experiment: (§1) Selectivity interaction (Adapta Assay) EUB0001632a LRRK2; conditions: at 10 µM
[6] = system: Leucine-rich repeat serine/threonine-protein kinase 2 (Homo sapiens), Q5S007 [I2020T]; experiment: as §1; conditions: at 10 µM
[7] = system: Leucine-rich repeat serine/threonine-protein kinase 2 (Homo sapiens), Q5S007 [R1441C]; experiment: as §1; conditions: at 10 µM
[8] = target: Leucine-rich repeat serine/threonine-protein kinase 2 (Homo sapiens, UniProt Q5S007); experiment: as §1; conditions: at 10 µM
[9] = target: Calcium/calmodulin-dependent protein kinase type 1D (Homo sapiens) (UniProt Q8IU85); experiment: Selectivity interaction (ActivX KiNativ screen (kinase selectivity in THP-1 cell lysates)) EUB0000639a CAMK1D; type: subcellular; conditions: lysate, at 5 µM
Calcium/calmodulin-dependent protein kinase type 1D (Homo sapiens), sequence (Q8IU85 whole entry, looked up): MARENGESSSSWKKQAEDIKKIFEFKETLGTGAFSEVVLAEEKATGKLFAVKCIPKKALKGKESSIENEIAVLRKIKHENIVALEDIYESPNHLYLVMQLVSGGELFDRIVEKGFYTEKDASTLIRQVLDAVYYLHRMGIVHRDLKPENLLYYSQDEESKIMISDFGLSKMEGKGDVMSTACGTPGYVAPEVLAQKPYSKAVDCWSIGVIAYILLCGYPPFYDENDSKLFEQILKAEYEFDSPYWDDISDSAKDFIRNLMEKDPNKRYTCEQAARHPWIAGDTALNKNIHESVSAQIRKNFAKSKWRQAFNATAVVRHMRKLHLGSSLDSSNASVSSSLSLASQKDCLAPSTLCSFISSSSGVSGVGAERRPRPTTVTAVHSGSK

[10] = target: Vascular endothelial growth factor receptor 2 (Homo sapiens, UniProt P35968); experiment: Selectivity interaction (KinomeScan (DiscoverX)) EUB0000607a KDR; conditions: at 10 µM
Vascular endothelial growth factor receptor 2, sequence (P35968 whole entry): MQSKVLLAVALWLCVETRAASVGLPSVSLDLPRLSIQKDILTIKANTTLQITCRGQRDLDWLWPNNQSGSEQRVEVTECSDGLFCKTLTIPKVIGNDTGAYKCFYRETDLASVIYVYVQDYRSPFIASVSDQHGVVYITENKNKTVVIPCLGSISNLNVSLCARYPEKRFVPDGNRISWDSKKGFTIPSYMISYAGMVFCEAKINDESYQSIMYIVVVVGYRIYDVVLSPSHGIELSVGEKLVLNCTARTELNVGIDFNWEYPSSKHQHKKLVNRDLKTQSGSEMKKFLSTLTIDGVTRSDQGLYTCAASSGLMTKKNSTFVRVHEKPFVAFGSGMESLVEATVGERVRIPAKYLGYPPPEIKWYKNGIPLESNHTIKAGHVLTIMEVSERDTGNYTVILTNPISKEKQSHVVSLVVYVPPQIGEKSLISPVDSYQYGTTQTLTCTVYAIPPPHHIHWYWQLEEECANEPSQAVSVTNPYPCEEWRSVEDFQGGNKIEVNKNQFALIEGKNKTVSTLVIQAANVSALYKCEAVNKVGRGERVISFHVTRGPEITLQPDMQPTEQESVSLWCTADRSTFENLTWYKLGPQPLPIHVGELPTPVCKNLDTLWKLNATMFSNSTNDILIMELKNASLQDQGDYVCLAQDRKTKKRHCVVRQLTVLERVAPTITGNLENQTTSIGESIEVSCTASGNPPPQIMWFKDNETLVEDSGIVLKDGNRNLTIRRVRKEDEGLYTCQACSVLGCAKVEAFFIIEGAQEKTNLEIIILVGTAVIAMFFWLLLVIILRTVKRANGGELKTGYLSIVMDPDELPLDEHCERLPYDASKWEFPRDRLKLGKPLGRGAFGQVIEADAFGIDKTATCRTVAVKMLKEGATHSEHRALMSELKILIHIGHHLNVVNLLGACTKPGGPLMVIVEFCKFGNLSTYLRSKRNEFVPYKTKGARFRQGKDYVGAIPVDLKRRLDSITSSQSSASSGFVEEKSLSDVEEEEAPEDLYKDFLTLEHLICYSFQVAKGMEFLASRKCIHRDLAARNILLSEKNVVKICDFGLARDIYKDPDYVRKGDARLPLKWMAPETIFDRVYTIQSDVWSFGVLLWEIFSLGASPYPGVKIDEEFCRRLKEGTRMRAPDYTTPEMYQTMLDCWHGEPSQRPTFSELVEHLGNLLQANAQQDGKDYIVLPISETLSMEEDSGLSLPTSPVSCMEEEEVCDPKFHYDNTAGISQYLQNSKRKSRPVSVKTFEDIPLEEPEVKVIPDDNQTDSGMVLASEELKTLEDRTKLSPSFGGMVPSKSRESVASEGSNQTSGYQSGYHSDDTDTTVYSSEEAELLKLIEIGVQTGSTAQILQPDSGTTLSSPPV

[11] = target: T2, Mitogen-activated protein kinase kinase kinase 5 (Homo sapiens) (UniProt Q99683); experiment: Selectivity interaction (KinomeScan (DiscoverX)) EUB0000595a MAP3K5; conditions: at 10 µM
T2 sequence (whole entry): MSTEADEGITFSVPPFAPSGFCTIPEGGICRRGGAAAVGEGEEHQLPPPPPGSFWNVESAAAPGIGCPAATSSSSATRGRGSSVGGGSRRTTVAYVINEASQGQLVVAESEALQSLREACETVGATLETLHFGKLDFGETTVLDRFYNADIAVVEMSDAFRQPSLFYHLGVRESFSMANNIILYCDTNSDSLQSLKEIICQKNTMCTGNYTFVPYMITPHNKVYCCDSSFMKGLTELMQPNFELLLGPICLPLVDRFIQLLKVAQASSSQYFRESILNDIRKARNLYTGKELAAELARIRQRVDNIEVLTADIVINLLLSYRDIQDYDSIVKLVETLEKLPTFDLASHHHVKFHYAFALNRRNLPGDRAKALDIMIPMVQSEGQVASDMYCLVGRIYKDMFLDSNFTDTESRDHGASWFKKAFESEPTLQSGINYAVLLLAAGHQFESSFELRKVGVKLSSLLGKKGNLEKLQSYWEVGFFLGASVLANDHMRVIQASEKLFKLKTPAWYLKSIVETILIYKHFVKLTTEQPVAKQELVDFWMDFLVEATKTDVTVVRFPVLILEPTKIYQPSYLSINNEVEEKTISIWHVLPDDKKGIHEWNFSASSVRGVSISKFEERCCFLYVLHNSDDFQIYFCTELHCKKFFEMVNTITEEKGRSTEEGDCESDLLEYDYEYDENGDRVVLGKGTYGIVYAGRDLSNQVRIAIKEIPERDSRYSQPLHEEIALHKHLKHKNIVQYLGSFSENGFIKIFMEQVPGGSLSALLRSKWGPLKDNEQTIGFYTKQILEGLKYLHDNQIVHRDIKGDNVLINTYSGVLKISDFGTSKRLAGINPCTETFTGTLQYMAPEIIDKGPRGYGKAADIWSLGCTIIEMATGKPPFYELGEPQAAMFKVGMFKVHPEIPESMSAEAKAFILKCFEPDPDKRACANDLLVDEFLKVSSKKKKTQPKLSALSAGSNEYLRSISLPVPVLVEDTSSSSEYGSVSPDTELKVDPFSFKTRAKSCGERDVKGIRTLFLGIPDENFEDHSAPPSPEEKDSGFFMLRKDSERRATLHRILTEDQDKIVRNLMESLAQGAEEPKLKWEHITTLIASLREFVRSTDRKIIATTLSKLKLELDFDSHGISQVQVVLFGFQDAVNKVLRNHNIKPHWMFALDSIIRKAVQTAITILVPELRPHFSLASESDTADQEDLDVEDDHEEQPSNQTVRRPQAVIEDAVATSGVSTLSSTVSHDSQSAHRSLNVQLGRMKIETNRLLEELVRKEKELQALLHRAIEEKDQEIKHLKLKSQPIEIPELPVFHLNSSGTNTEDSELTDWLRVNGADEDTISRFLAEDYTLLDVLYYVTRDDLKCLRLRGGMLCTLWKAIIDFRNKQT

[12] = target: Proto-oncogene tyrosine-protein kinase Src (Homo sapiens, UniProt P12931); experiment: Selectivity interaction (Kinase panel (enzymatic assay)) EUB0000595a SRC
[13] = target: Glutamate receptor ionotropic, kainate 1 (Homo sapiens) (UniProt P39086); experiment: Selectivity interaction (Eurofins CEREP Diversity Profile (receptors and ion channels)) EUB0000279b GRIK1; conditions: at 10 µM

Myosin light chain kinase, smooth muscle, sequence (Q15746 whole entry): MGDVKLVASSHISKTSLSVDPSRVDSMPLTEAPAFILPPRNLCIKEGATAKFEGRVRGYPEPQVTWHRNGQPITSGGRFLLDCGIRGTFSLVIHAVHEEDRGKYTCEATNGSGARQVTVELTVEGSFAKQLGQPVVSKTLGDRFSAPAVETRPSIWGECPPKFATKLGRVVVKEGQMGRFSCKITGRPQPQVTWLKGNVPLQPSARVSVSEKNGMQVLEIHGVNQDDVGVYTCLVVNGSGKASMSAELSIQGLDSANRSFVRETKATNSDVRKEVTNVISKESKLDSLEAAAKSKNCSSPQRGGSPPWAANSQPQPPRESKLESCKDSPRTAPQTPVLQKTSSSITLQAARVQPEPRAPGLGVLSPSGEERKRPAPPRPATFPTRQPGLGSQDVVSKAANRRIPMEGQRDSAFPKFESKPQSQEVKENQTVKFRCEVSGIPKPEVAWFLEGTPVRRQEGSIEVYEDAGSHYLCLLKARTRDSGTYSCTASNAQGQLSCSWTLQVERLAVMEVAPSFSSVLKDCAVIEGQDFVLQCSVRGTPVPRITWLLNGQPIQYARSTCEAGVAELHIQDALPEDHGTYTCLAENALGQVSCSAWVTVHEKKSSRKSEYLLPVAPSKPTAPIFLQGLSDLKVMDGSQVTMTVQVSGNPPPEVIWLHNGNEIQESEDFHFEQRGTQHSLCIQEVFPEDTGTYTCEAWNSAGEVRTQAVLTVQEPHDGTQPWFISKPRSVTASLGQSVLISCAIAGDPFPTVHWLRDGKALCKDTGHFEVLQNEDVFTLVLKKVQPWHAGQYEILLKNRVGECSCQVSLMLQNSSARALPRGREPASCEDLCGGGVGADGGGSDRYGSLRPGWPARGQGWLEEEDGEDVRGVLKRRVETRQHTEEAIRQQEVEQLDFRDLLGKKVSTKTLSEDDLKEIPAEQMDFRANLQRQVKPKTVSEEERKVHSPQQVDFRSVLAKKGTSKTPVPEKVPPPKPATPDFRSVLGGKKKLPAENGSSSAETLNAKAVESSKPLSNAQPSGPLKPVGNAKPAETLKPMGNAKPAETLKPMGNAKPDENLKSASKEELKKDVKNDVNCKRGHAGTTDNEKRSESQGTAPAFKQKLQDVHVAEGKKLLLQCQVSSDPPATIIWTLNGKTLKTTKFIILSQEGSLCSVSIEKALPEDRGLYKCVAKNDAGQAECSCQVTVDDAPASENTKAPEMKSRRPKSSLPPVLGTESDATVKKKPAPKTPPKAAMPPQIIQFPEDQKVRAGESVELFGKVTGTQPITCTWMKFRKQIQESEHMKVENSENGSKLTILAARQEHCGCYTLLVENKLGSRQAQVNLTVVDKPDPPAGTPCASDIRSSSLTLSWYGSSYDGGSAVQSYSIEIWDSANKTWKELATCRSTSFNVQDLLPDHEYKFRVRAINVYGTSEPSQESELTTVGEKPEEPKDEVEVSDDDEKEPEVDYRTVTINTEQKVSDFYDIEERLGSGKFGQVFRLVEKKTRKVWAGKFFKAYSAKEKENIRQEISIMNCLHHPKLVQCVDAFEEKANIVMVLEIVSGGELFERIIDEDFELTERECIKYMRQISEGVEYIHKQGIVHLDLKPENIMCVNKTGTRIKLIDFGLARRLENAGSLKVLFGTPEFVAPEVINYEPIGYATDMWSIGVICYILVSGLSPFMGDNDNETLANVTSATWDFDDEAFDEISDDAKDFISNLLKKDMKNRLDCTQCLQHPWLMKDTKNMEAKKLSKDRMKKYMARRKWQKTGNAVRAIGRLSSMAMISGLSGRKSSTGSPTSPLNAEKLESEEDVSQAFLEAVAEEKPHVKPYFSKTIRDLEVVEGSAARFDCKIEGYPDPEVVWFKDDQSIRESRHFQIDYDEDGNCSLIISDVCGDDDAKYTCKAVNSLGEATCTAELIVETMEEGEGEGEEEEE
Serine/threonine-protein kinase B-raf (Homo sapiens), sequence (P15056 whole entry): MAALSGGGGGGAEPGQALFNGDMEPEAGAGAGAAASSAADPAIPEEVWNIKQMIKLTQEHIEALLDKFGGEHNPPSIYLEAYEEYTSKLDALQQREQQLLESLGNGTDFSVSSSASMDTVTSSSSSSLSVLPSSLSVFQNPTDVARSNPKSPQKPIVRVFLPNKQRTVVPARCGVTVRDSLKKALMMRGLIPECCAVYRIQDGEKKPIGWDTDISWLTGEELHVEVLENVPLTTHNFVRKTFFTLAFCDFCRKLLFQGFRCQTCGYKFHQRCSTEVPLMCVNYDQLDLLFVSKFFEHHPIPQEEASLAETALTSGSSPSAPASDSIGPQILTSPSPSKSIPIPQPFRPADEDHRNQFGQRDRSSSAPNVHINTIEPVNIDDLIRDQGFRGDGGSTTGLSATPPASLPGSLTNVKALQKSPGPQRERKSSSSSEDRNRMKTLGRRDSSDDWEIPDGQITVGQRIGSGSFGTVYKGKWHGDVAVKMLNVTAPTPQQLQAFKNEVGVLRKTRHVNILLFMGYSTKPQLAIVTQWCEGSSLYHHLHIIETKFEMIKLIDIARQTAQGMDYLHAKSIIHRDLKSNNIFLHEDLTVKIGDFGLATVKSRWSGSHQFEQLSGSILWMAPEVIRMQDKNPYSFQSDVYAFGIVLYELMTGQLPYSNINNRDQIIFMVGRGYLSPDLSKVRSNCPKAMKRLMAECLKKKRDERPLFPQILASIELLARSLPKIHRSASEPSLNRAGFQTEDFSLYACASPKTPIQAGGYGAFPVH

CCN(CC)CCCCNc1ncc2cc(-c3cc(OC)cc(OC)c3)c(NC(=O)NC(C)(C)C)nc2n1
% of control [1]: 100%

CN(C)CCOc1ccc(-c2nc(-c3ccncc3)c(-c3ccc4c(c3)CC/C4=N\O)[nH]2)cc1
% of control [2]: 98%

O=C(NOC[C@H](O)CO)c1ccc(F)c(F)c1Nc1ccc(I)cc1F
% of control [3]: 91%

Cc1cc([C@@H](C)Nc2ccccc2C(=O)O)c2nc(N3CCOCC3)cc(=O)n2c1 [AZD-6482]
% of control [4]: 100%

Cn1cc(-n2cnc3c(NCc4nc5cc(Cl)c(Cl)cc5[nH]4)nc(N4CCOCC4)nc32)cn1
% of inhibition [5]: 23.9% | % of inhibition [6]: 100% | % of inhibition [7]: 96.1% | % of inhibition [8]: 18.9%

CC[C@@H]1[C@H](F)C(=O)N[C@@H]1COc1nccc2cc(C(N)=O)c(OC)cc12 [ZIMLOVISERTIB]
% of inhibition [9]: 16.3%

CNC(=O)Nc1ccc(-c2nc(N3CC4CCC(C3)O4)c3cnn(C4CCC5(CC4)OCCO5)c3n2)cc1
% of control [10]: 76%

COCC(=O)NC/C=C/c1ccc2ncnc(Nc3ccc(Oc4ccc(C)nc4)c(C)c3)c2c1 [CP-724714]
% of control [11]: 90% | pIC50 [12]: < 5.00

CC(=O)c1cc(-c2ccccc2OCC2CC2)c2ncccn12
% of control [13]: 117%
